Source: publication PMC6222787, “Anti-Inflammatory Activities of Compounds Isolated from the Rhizome of Anemarrhena asphodeloides” (Molecules : A Journal of Synthetic Chemistry and Natural …, 2018)
Several values for one entry are separate records, joined by “and”; a condition that tells them apart may be missing. Identical values can stand only once. Like-named read-outs stand apart in the source and are kept apart here.

Tests used:
[1] = test system: LPS-induced NO production in N9 microglial cells; assay: LPS-induced NO production (Griess assay); assay type: cell-based, mouse; settings: for Nitrite: control 4.60, LPS group 31.81 μM; for Nitrite / % Inhibition of NO Production / inhibition at 25 µM / inhibition at 50 µM: mean ± S.E.M.; for % Inhibition of NO Production: 50 µM; for inhibition at 25 µM / inhibition at 50 µM: N9, 24 h
Protocol: Figure 2 Inhibitory effects of TBIII (A) and t-HL (B) in LPS-stimulated N9 microglial cells. Cells were pretreated with different concentrations of TBIII and t-HL 1 h prior to the addition of LPS (100 ng/mL) and were further incubated for 24 h. NO production was determined by using the Griess reagent. IC50 values and curve fitting were determined using Graphpad Prism (GraphPad, Avenida, CA, USA).
Accumulation of nitrite, a metabolite of NO in the culture media, was measured by Griess assay as previously reported. Briefly, cells were stimulated with 100 ng/mL of LPS for 24 h in the presence of the test compounds (0–50 μM).

iNOS = iNOS expression by Western blot in LPS-stimulated N9 cells; assay type: cell-based, mouse; settings: pretreated 1 h, LPS 100 ng/mL 24 h, dose-dependent
Protocol: Figure 3 Effects of TBIII (A) and t-HL (B) on the expression of iNOS induced by LPS in N9 microglial cells. The iNOS protein levels were analyzed by Western blot. Cells were treated with different concentrations of TBIII and t-HL for 1 h and then stimulated with LPS (100 ng/mL) for 24 h. The iNOS signal was normalized to the β-actin signal. Parthenolide (PAR, 10 μM) was used as a positive control. The data were obtained from three independent experiments and expressed as the means ± S.E.M. * p < 0.05, ** p < 0.01, *** p < 0.001 versus the LPS-treated group; ^### p < 0.001 versus the control group.
(§1) N9 cells were plated into 12-well plates (4 × 10^5 cells/well) and pretreated with different concentrations of TBIII and t-HL for 1 h, then stimulated by 100 ng/mL of LPS for 24 h. Nuclear and cytoplasmic proteins were obtained with nuclear and cytoplasmic protein extraction kit (Beyotime Biotechnology, Shanghai, China) according to the manufacturer′s protocol. Proteins were collected by SDS-PAGE Sample Loading Buffer (Yeasen, Shanghai, China) and heated at 99 °C for 10 min. Proteins in sample loading buffer were separated on 10% sodium dodecyl sulfate (SDS)-polyacrylamide gel electrophoresis (PAGE) and followed by transferring to nitrocellulose membranes (Whatman Protran, Dassel, Germany). […] The immunoreactive bands were quantified using the NIH Image J software (NIH, Bethesda, MD, USA).

TNF-α [2] = assay: LPS-induced TNF-α mRNA expression (real-time PCR); assay type: cell-based, mouse; settings: pretreated 1 h, LPS 100 ng/mL 4 h, dose-dependent
Protocol: (§2) Figure 4 Effects of TBIII (A) and t-HL (B) on LPS-induced mRNA expression of pro-inflammatory cytokines in N9 microglial cells. Cells were treated with different concentrations of TBIII and t-HL for 1 h and then stimulated with LPS (100 ng/mL) for 4 h. TNF-α and IL-6 mRNA levels were determined by real-time PCR analysis. […] The data were obtained from three independent experiments and expressed as the means ± […] < 0.001 versus the LPS-treated group; ^### p < 0.001 versus the control group. Total RNA was extracted from cells using Trizol reagent (Invitrogen, Carlsbad, CA, USA). Reverse transcription of RNA was performed with the Reverse Transcription System […] kit (Promega, Madison, WI, USA) according to the manufacturer's protocol. The complementary DNA (cDNA) was subsequently subjected to Real-Time PCR to quantify the transcripts of TNF-α and IL-6 using SYBR® Green Real-time PCR Master Mix (TOYOBO, Osaka, Japan). […] The primers for the mouse housekeeping gene glyceraldehyde-3-phosphate dehydrogenase ([…] was performed according to the following conditions: 94 °C for 3 min, 40 cycles of denaturation at 94 °C for 30 s, annealing at 56 °C for 45 s, extension at 72 °C for 30 s, followed by a final extension at 72 °C for 10 min. The quantified fold changes in messenger RNA (mRNA) in each sample were normalized to GAPDH expression and calculated using the 2exp (-ΔΔCt) method.

IL-6 [3] = assay: LPS-induced IL-6 mRNA expression (real-time PCR); assay type: cell-based, mouse; settings: pretreated 1 h, LPS 100 ng/mL 4 h, dose-dependent
Protocol: as §2

TNF-α [4] = assay: LPS-induced TNF-α production (ELISA); assay type: cell-based, mouse; settings: pretreated 1 h, LPS 100 ng/mL 24 h
Protocol: (§3) Figure 5 Effects of TBIII (A) and t-HL (B) on LPS-induced production of pro-inflammatory cytokines in N9 microglial cells. Cells were pre-treated with TBIII and t-HL for 1 h and then stimulated with LPS (100 ng/mL) for 24 h. The protein levels of TNF-α and IL-6 determined by ELISA according to manufacturer′s instructions. PAR (10 μM) was used as a positive control. The data were obtained from three independent experiments and expressed as the means ± S.E.M. * p < 0.05, ** p < 0.01, *** p < 0.001 versus the LPS-treated group; ^## p < 0.01, ^### p < 0.001 versus the control group.
(§4) N9 cells were plated into 24-well plates (2 × 10^5 cells/well). After cells became adherent, they were pretreated with different concentrations of TBIII and t-HL for 1 h before stimulation with 100 ng/mL of LPS. The supernatants of cultured medium were collected and the production of TNF-α and IL-6 was measured after incubation for 24 h using an ELISA kit according to manufacturer′s instructions.

IL-6 [5] = assay: LPS-induced IL-6 production (ELISA); assay type: cell-based, mouse; settings: pretreated 1 h, LPS 100 ng/mL 24 h
Protocol: as §3, §4

Akt = assay: LPS-induced activation of Akt (Western blot); assay type: cell-based, mouse; settings: pretreated 1 h, LPS 100 ng/mL
Protocol: (§5) Figure 6 Effect of TBIII and t-HL on LPS-induced activation of Akt (A,C) and NF-κB (B,D) in N9 cells. Cells were treated with different concentrations of TBIII and t-HL for 1 h prior to stimulation with LPS (100 ng/mL). Nuclear and cytoplasmic proteins were obtained and analyzed by western blot. PAR (10 μM) was used as a positive control. The data shown represent the mean ± S.E.M of three independent experiments. * p < 0.05, ** p < 0.01, *** p < 0.001 versus the LPS-treated group; ^# p < 0.05, ^## p < 0.01, ^### p < 0.001 versus the control group.
as §1

NF-κB = assay: LPS-induced activation of NF-κB (Western blot, nuclear p65); assay type: cell-based, mouse; settings: pretreated 1 h, LPS 100 ng/mL
Protocol: as §5, §1

N9 microglial cells [6] = test system: N9 microglial cells
Protocol: (§6) The N9 microglial cell line was obtained from China Cell Line Bank. The cells were grown at 37 °C in IMDM supplemented with 10% heat-inactivated FBS under a humidified atmosphere of 5% CO2. In this experiment, cells were allowed to acclimate for 24 h before treatments.
(§7) Cell viability was evaluated by the MTT reduction assay [36]. Cells were seeded in 96-well plates at a density of 2 × 10^4 cells/well and allowed to grow for 24 h before treatments. Thereafter, 100 μL medium containing various concentrations (0–50 μM) of compounds were added and incubated for another 24 h. MTT was dissolved in DD water (5 mg/mL) and 10 μL were added to each well. After 4 h, the medium was removed and 100 μL DMSO were filled in each well. The optical density was measured at 490 nm on a Flexstation 3 (Molecular Devices, Silicon Valley, CA, USA).

[7] = test system: mouse model of postpartum depression; settings: cited from earlier work
in vitro = settings: mouse, % Cell Viability
Protocol: as §6, §7

[8] = test system: various kinds of tumor cells; set-up: method as in PMID 15971131, PMID 28548219, PMID 29393481, PMID 27897231; settings: cited from earlier work
[9] = MTT assay for cell viability; settings: mouse, N9 microglial cells, % Cell Viability, 24 h, MTT, mean ± S.E.M.; for viability at 24 h, 25 µM: 25 μM compound; for viability at 24 h, 50 µM: 50 μM compound
Protocol: as §6, §7

N9 microglial cells [10] = assay: MTT assay for cell viability
Protocol: as §6, §7

neuronal injury = test system: neuronal injury; set-up: method as in PMID 23287539; settings: cited from earlier work
[11] = test system: scopolamine-induced cognition deficits; set-up: method as in PMID 27444169; settings: mice; cited from earlier work
[12] = 25 μM compound, LPS 100 ng/mL, 24 h
[13] = 50 μM compound, LPS 100 ng/mL, 24 h
[14] = Mus musculus, 25 μM compound, LPS 100 ng/mL, 24 h, read-out: % Inhibition of NO Production
[15] = Mus musculus, 50 μM compound, LPS 100 ng/mL, 24 h, read-out: % Inhibition of NO Production

SMILES: CC1=C(CCC(C)COC2OC(CO)C(O)C(O)C2O)OC2CC3C4CCC5CC(OC6OC(CO)C(O)C(O)C6OC6OC(CO)C(O)C(O)C6O)CCC5(C)C4CCC3(C)C12 (stereo not shown) [Compound 11, Timosaponin BIII]
- Nitrite [1, 12]: 8.55 ± 0.25 µM
- Nitrite [1, 13]: 4.24 ± 0.10 µM
- % Inhibition of NO Production [1, 13]: 86% and 86.67 ± 0.37 %
- iNOS protein expression (iNOS): significantly attenuated
- TNF-α mRNA expression (TNF-α [2]): significantly suppressed
- IL-6 mRNA expression (IL-6 [3]): significantly suppressed
- TNF-α production (protein) (TNF-α [4]): significantly suppressed
- IL-6 production (protein) (IL-6 [5]): significantly suppressed
- phosphorylation of Akt / PI3K/Akt signaling activation (Akt): attenuated
- NF-κB signaling / p65 subunit into nuclei (NF-κB): no effect
- cytotoxicity against N9 microglial cells (in words) (N9 microglial cells [6]): non-cytotoxic
- % Cell Viability (N9 microglial cells [6]; mouse, 24 h, 50 µM): 74.93 ± 3.15 %
- antidepressive activity [7]: antidepressive activity
- viability at 24 h, 25 µM (in vitro): 120 ± 11.8%

SMILES: C[C@@H]1O[C@@H](O[C@H]2[C@H](OC(=O)[C@]34CCC(C)(C)C[C@H]3C3=CC[C@@H]5[C@@]6(C)C[C@H](O)[C@H](O[C@@H]7O[C@H](CO)[C@@H](O)[C@H](O)[C@H]7O)C(CO)(CO)[C@@H]6CC[C@@]5(C)[C@]3(C)C[C@H]4O)OC[C@H](O)[C@@H]2O)[C@H](O)[C@H](O)[C@H]1O[C@@H]1OC[C@@H](O)[C@H](O[C@@H]2OC[C@](O)(CO)[C@H]2O)[C@H]1O [Compound 14, Platycodin D]
- Nitrite [1, 12]: 28.94 ± 0.40 µM
- Nitrite [1, 13]: 4.29 ± 0.59 µM
- inhibition at 25 µM [1, 14]: 8.65 ± 2.24%
- inhibition at 50 µM [1, 15]: 86.5 ± 2.71%
- cytotoxicity towards tumor cells [8]: significant cytotoxicity
- viability at 24 h, 25 µM [9]: 40.2 ± 9.18%
- viability at 24 h, 50 µM [9]: 17.9 ± 1.99%
- cell viability reduced to (N9 microglial cells [10]; at 25 and 50 μM): ≤ 60%

SMILES: CCC1C(OC(=O)CCC(C)COC2OC(CO)C(O)C(O)C2O)CC2C3CCC4CC(OC5OC(CO)C(O)C(O)C5OC5OC(CO)C(O)C(O)C5O)CCC4(C)C3CCC12C (stereo not shown) [Compound 19, Anemarnoside A]
- Nitrite [1, 12]: 23.63 ± 1.13 µM
- Nitrite [1, 13]: 9.83 ± 0.30 µM
- inhibition at 25 µM ([1]; Mus musculus, read-out: % Inhibition of NO Production, 25 μM compound, LPS 100 ng/mL, 24 h): 25.2 ± 8.72%
- inhibition at 50 µM ([1]; Mus musculus, read-out: % Inhibition of NO Production, 50 μM compound, LPS 100 ng/mL, 24 h): 66.9 ± 2.82%
- viability at 24 h, 25 µM (in vitro): 124 ± 3.13%
- viability at 24 h, 50 µM (in vitro): 126 ± 3%

SMILES: C=CC(C=Cc1ccc(O)cc1)c1ccc(O)cc1 (stereo not drawn) [Compound 23, trans-Hinokiresinol]
- Nitrite [1, 12]: 14.93 ± 0.41 µM
- Nitrite [1, 13]: 5.18 ± 0.06 µM
- % Inhibition of NO Production [1, 13]: 83.73 ± 0.22 %
- inhibition at 25 µM [1, 14]: > 50%
- inhibition at 50 µM [1, 15]: 83%
- IC50 ([1]; Mus musculus, N9, pretreated 1 h, LPS 100 ng/mL, 24 h, Griess reagent, read-out: IC50, inhibition of NO production): 39.1 µM
- iNOS protein expression (iNOS): significantly attenuated
- TNF-α mRNA expression (TNF-α [2]): significantly suppressed
- IL-6 mRNA expression (IL-6 [3]): significantly suppressed
- TNF-α production (protein) (TNF-α [4]): significantly suppressed
- IL-6 production (protein) (IL-6 [5]): significantly suppressed
- phosphorylation of Akt / PI3K/Akt signaling activation (Akt): not affected
- NF-κB signaling / p65 subunit into nuclei (NF-κB): significantly prevented
- effect on neuronal injury (neuronal injury): protective effect
- viability at 24 h, 25 µM [9]: 108 ± 4.39%
- viability at 24 h, 50 µM [9]: 98.3 ± 11.6%
- cytotoxicity against N9 microglial cells (in words) (N9 microglial cells [10]; MTT): non-cytotoxic

SMILES: C[C@@H](CC[C@@]1(O)O[C@H]2C[C@H]3[C@@H]4CC[C@@H]5C[C@@H](O[C@@H]6O[C@H](CO)[C@H](O)[C@H](O)[C@H]6O[C@@H]6O[C@H](CO)[C@@H](O)[C@H](O)[C@H]6O)CC[C@]5(C)[C@H]4CC[C@]3(C)[C@H]2[C@@H]1C)CO[C@@H]1O[C@H](CO)[C@@H](O)[C@H](O)[C@H]1O [Timosaponin BII]
- effect on scopolamine-induced cognition deficits [11]: ameliorate scopolamine-induced cognition deficits
